Literature values, collected in patent publication US11655474B2, “Suppression of pathological angiogenesis by inhibition of NR2F6” (Regen Biopharma, Inc., priority 2019, dated 2023).

How the values were obtained:
human microvascular ECs = human microvascular ECs cultured in tumor-conditioned medium
[1] = subset that received paclitaxel with the antibody

Molecule | tumor CM-induced MDR1 up-regulation (human microvascular ECs) | HR, overall survival (ovarian cancer patients; bevacizumab plus chemotherapy compared with chemotherapy alone, 95 percent CI: 0.69, 1.14) | median progression free survival (PFS) (ovarian cancer patients; bevacizumab plus chemotherapy, ovarian cancer patients, chemotherapy alone 3.4 months) [months] | median overall survival (OS) (ovarian cancer patients; bevacizumab plus chemotherapy, chemotherapy alone 13.3 months) [months] | improvement in median OS (ovarian cancer patients; [1]) [month] | improvement in median PFS (ovarian cancer patients; [1]) [month] | HR, PFS (ovarian cancer patients; subset that received paclitaxel with the antibody, 95 percent CI: 0.31, 0.72) | HR, OS (ovarian cancer patients; subset that received paclitaxel with the antibody, 95 percent CI: 0.41, 1.01) | median PFS (ovarian cancer patients; subset that received paclitaxel with the antibody, versus 3.9 months) [months] | median OS (ovarian cancer patients; subset that received paclitaxel with the antibody, versus 13.2 months) [months] | objective response rate (ovarian cancer patients; subset that received paclitaxel with the antibody, versus 30 percent) [%]
COc1cc2nccc(Oc3ccc(NC(=O)Nc4ccc(F)cc4F)c(F)c3)c2cc1OC [Ki8751] | blocked |  |  |  |  |  |  |  |  |  | 
bevacizumab: antibody which binds VEGF |  | 0.89 | 6.8 | 16.6 | 9.2 | 5.7 | 0.47 | 0.64 | 9.6 | 22.4 | 53
